In paper PMC10199020 (Nature Communications, 2023):
Bridge positions count the residues as written; N and C are the ends. Square brackets hold non-standard residues; d marks the D form. Peptide text beside a SMILES is read from it. * marks the point of attachment. 5TAMRA = CN(C)c1ccc2c(c1)Oc1cc(N(C)C)ccc1C21OC(=O)c2cc(C(=O)*)ccc21; 2Nal = N[C@@H](Cc1ccc2ccccc2c1)C(=O)O; Pen = CC(C)(S)[C@H](N)C(=O)O; Aib = CC(C)(N)C(=O)O

Key:
[1] = biological target: T1, NL-IL23R (Homo sapiens, UniProt Q5VWK5); experiment: P630-TMR NanoBRET binding assay, NL-IL23R alone; conditions: for BRET ratio, Specific (Mean) / BRET ratio, Non-specific (Mean): Fig. 2c; for BRET ratio, Non-specific (Mean): with 10 μM P630; for BRET ratio with non-specific binding subtracted (Mean): Figure 2 sheet Panel f; for BRET ratio with non-specific binding subtracted (Mean) / % maximum BRET ratio / % of P630-TMR specific Bmax (Mean): NL-IL23R; for % maximum BRET ratio / % of P630-TMR specific Bmax (Mean): Figure 2 sheet Panel g, Fig. 3d
T1 construct: expressed in transfected cells; host or cells: HEK293T, transient transfection
T1 sequence (Q5VWK5 24-629): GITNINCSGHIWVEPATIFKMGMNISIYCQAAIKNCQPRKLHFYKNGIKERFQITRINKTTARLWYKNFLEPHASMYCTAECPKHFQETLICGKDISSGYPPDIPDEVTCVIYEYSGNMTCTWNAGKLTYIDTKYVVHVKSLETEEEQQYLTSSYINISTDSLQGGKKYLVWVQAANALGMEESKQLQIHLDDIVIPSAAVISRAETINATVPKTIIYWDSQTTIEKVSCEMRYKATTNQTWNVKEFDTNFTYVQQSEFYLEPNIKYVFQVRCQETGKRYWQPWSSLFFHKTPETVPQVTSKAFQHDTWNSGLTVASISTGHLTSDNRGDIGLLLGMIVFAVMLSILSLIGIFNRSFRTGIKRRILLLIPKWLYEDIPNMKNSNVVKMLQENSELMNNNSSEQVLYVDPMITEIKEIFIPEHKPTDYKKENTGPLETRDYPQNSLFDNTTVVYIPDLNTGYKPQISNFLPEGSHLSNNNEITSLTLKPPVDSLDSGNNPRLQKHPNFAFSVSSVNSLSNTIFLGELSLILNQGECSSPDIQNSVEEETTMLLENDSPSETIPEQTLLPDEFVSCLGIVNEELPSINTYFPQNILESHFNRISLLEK
Text: A standard curve was used to predict the expression level of NanoLuc labelled receptor in each experiment (Supplementary Fig. 1).
Fig. 2 Creation and characterisation of a fluorescent cyclic peptide probe for IL23R. […] Data are normally mean ± SEM from five independent experiments. Details on absolute number of data points included for each concentration are provided in the associated Source Data file. In each individual saturation experiment triplicate determinations were normally made for total binding and duplicate measurements were made for non-specific binding.
(§1) Media was removed from white 96-well microplates containing transfected cells and replaced with fluoroprobe in the presence or absence of antagonist in 50 μL Hanks Balanced Salt Solution (HBSS) with 1 mg/mL BSA (Merck). After a 1-hour incubation at 37 °C without CO2, 5 μL of HBSS containing 77 μM furimizine was added to each well (final concentration 7 μM), the plate incubated for 5-minutes and the BRET signal measured using a PheraStar FS plate reader (BMG Labtech; data acquisition software version 5.41; MARS analysis software version 3.32) with a 450 ± 30 nm and >550 nm long pass filters.
Ligand binding data were fitted with the equation:2 BRETratio=Bmax[A]/([A]+KD)+(BA+C). Where ‘Bmax’ is the maximum specific binding BRET signal, ‘[A]’ is fluorescent probe concentration, ‘B’ is the non-specific binding component’s slope and ‘C’ is the Y intercept.
Specific binding data was generated by subtracting the BRET values gained in the presence of an excess of unlabelled probe from the BRET ratios gained in the absence of unlabelled probe. Specific binding data were fit using the equation:3 Y=Bmax[B]/(B+KD) where ‘Bmax’ is the maximum specific binding signal of the curve and ‘[B]’ is the concentration of fluorescent probe.

[2] = biological target: HiBit-IL23R and LgBit-IL12Rβ1 (Homo sapiens, UniProt Q5VWK5); experiment: NanoBiT BRET binding assay; design: expressed in transfected cells; host or cells: HEK293T, transient transfection; conditions: for BRET ratio, Non-specific (Mean) / BRET ratio, Specific (Mean): Fig. 3b, NanoBiT complemented receptors; for % of P630-TMR specific Bmax (Mean): Fig. 3d, HiBit-IL23R + LgBit-IL12RB1
Text: Finally, we utilised a NanoBiT BRET system in which a complemented luciferase with fragments bound to both receptor subunits (Fig. 3) can be used as a BRET donor to measure interactions with binary receptor complexes.
Data in b are mean ± SEM from three independent experiments. In each individual experiment, triplicate determinations were made for total binding and duplicate or triplicate determinations made for non-specific binding. Data in c are the mean values obtained in five independent experiments, each conducted with six replicates. […] Data in d are the mean ± SEM from five (NL-IL23R and NL-23R + IL12Rβ1) or three (HiBit-IL23R + LgBit-IL12Rβ1) independent experiments. Source data are provided as a Source Data file.
as §1

[3] = NL-IL23R alone, P630-TMR 0.457247 nM
[4] = NL-IL23R alone, P630-TMR 1.37174 nM
[5] = NL-IL23R alone, P630-TMR 4.11523 nM
[6] = NL-IL23R alone, P630-TMR 12.3457 nM
[7] = NL-IL23R alone, P630-TMR 37.037 nM
[8] = NL-IL23R alone, P630-TMR 111.111 nM
[9] = NL-IL23R alone, P630-TMR 1000 nM
[10] = NL-IL23R alone, P630-TMR 3000 nM

BRET ratio, Specific (Mean) [1, 3]: 0.2582
BRET ratio, Specific (Mean) [1, 4]: 0.3055
BRET ratio, Specific (Mean) [1, 5]: 0.425
BRET ratio, Specific (Mean) [1, 6]: 0.7682
BRET ratio, Specific (Mean) [1, 7]: 1.473
BRET ratio, Specific (Mean) [1, 8]: 2.644
BRET ratio, Specific (Mean) [1, 9]: 4.095
BRET ratio, Specific (Mean) [1, 10]: 5.137
BRET ratio, Non-specific (Mean) [1, 3]: 0.2458
BRET ratio, Non-specific (Mean) [1, 4]: 0.2417
BRET ratio, Non-specific (Mean) [1, 5]: 0.2509
BRET ratio, Non-specific (Mean) [1, 6]: 0.245
BRET ratio, Non-specific (Mean) [1, 7]: 0.2505
BRET ratio, Non-specific (Mean) [1, 8]: 0.2646
BRET ratio, Non-specific (Mean) [1, 9]: 0.4272
BRET ratio, Non-specific (Mean) [1, 10]: 0.8664
BRET ratio, Non-specific (Mean) ([1]; NL-IL23R alone, P630-TMR […]): 0.2988
BRET ratio with non-specific binding subtracted (Mean) ([1]; P630-TMR 0.457247 nM): 0.01938
BRET ratio with non-specific binding subtracted (Mean) ([1]; P630-TMR 1.37174 nM): 0.8164
BRET ratio with non-specific binding subtracted (Mean) ([1]; P630-TMR 4.11523 nM): 2.963
BRET ratio with non-specific binding subtracted (Mean) ([1]; P630-TMR 12.3457 nM): 2.778
BRET ratio with non-specific binding subtracted (Mean) ([1]; P630-TMR 37.037 nM): 2.936
BRET ratio with non-specific binding subtracted (Mean) ([1]; P630-TMR 111.111 nM): 9.572
BRET ratio with non-specific binding subtracted (Mean) ([1]; P630-TMR 1000 nM): 15.1461
BRET ratio with non-specific binding subtracted (Mean) ([1]; P630-TMR 3000 nM): 19.8619
% maximum BRET ratio / % of P630-TMR specific Bmax (Mean) ([1]; P630-TMR 0.457247 nM): 0.5534%
% maximum BRET ratio / % of P630-TMR specific Bmax (Mean) ([1]; P630-TMR 1.37174 nM): 1.759%
% maximum BRET ratio / % of P630-TMR specific Bmax (Mean) ([1]; P630-TMR 4.11523 nM): 4.853%
% maximum BRET ratio / % of P630-TMR specific Bmax (Mean) ([1]; P630-TMR 12.3457 nM): 14.5245%
% maximum BRET ratio / % of P630-TMR specific Bmax (Mean) ([1]; P630-TMR 37.037 nM): 33.5672%
% maximum BRET ratio / % of P630-TMR specific Bmax (Mean) ([1]; P630-TMR 111.111 nM): 64.3078%
% maximum BRET ratio / % of P630-TMR specific Bmax (Mean) ([1]; P630-TMR 1000 nM): 100.336%
% maximum BRET ratio / % of P630-TMR specific Bmax (Mean) ([1]; P630-TMR 3000 nM): 99.0015%
Kd ([1]; NL-IL23R alone, mean ± SEM): 101 ± 4 nM
Bmax, fold higher than NL-IL23R with IL12Rβ1 ([1]; NL-IL23R in isolation): 4.04 fold
BRET ratio, Non-specific (Mean) ([2]; P630-TMR 1.37174 nM): 0.09875
BRET ratio, Specific (Mean) ([2]; P630-TMR 1.37174 nM): 0.105
BRET ratio, Non-specific (Mean) ([2]; P630-TMR 4.11523 nM): 0.09641
BRET ratio, Specific (Mean) ([2]; P630-TMR 4.11523 nM): 0.1138
BRET ratio, Non-specific (Mean) ([2]; P630-TMR 12.3457 nM): 0.09986
BRET ratio, Specific (Mean) ([2]; P630-TMR 12.3457 nM): 0.141
BRET ratio, Non-specific (Mean) ([2]; P630-TMR 37.037 nM): 0.1012
BRET ratio, Specific (Mean) ([2]; P630-TMR 37.037 nM): 0.1913
BRET ratio, Non-specific (Mean) ([2]; P630-TMR 111.111 nM): 0.1006
BRET ratio, Specific (Mean) ([2]; P630-TMR 111.111 nM): 0.2562
BRET ratio, Non-specific (Mean) ([2]; P630-TMR 1000 nM): 0.1066
BRET ratio, Specific (Mean) ([2]; P630-TMR 1000 nM): 0.3269
BRET ratio, Non-specific (Mean) ([2]; P630-TMR 3000 nM): 0.1175
BRET ratio, Specific (Mean) ([2]; P630-TMR 3000 nM): 0.3365
% of P630-TMR specific Bmax (Mean) ([2]; P630-TMR 1.37174 nM): 2.813%
% of P630-TMR specific Bmax (Mean) ([2]; P630-TMR 4.11523 nM): 8.07%
% of P630-TMR specific Bmax (Mean) ([2]; P630-TMR 12.3457 nM): 19.2912%
% of P630-TMR specific Bmax (Mean) ([2]; P630-TMR 37.037 nM): 41.1077%
% of P630-TMR specific Bmax (Mean) ([2]; P630-TMR 111.111 nM): 71.2465%
% of P630-TMR specific Bmax (Mean) ([2]; P630-TMR 1000 nM): 99.3007%
% of P630-TMR specific Bmax (Mean) ([2]; P630-TMR 3000 nM): 100%
Kd ([2]; HiBit-IL23R and LgBit-IL12Rβ1, mean ± SEM): 53.5 ± 4.4 nM
Compound: COc1ccc(C[C@H](NC(=O)[C@H]2NC(=O)[C@H](CCC(N)=O)NC(=O)[C@H](Cc3c[nH]c4ccccc34)NC(=O)[C@H]([C@@H](C)O)NC(=O)[C@H](CC(N)=O)NC(=O)[C@@H](NC(C)=O)C(C)(C)SSC2(C)C)C(=O)N[C@@H](Cc2ccc3ccccc3c2)C(=O)NC(C)(C)C(=O)N[C@@H](CCC(=O)O)C(=O)N[C@@H](CC(N)=O)C(=O)N[C@@H](CC(N)=O)C(=O)N[C@@H](CCCCNC(=O)c2ccc3c(c2)C(=O)OC32c3ccc(N(C)C)cc3Oc3cc(N(C)C)ccc32)C(N)=O)cc1 [P630-TMR] (Ac-[Pen]NTWQ[Pen]Y(Me)[2Nal][Aib]ENNK(5TAMRA)-NH2; disulfide 1-6)
